By Ki is commonly meant a dissociation constant, usually derived from enzyme kinetics or from competition with a known ligand.

A short description of data set [1]: Inhibition of bacterial N-terminal His-tagged TEV protease site linked VIM-2 (27 to 266 amino acids) expressed in Escherichia coli Transetta (DE3) preincubated for 10 mins followed by FC5 fluorescent substrate addition by fluorescence assay. On the set-up: species or system Bacteria.
A short description of data set [2]: Inhibition of bacterial N-terminal His-tagged TEV protease site linked SFH1 (3 to 234 amino acids) expressed in Escherichia coli Transetta (DE3) preincubated for 10 mins followed by FC5 fluorescent substrate addition by fluorescence assay. Further details: species or system Bacteria; call rule not given here.
The next data set concerns the target Beta-lactamase TEM (Bacteria, UniProt P62593). Description: Inhibition of bacterial N-terminal His-tagged TEV protease site linked TEM-1 (24 to 286 amino acids) expressed in Escherichia coli Transetta (DE3) preincubated for 10 mins followed by FC5 fluorescent substrate addition by fluorescence assay.
Data set [3] is described as follows: Inhibition of bacterial N-terminal His-tagged TEV protease site linked KPC-2 (29 to 289 amino acids) expressed in Escherichia coli Transetta (DE3) preincubated for 10 mins followed by FC5 fluorescent substrate addition by fluorescence assay. Further details: species or system Bacteria.
A short description of data set [4]: Inhibition of bacterial N-terminal His-tagged TEV protease site linked NDM-1 (1 to 270 amino acids) expressed in Escherichia coli Transetta (DE3) preincubated for 10 mins followed by FC5 fluorescent substrate addition by fluorescence assay. Further details: species or system Bacteria.
Data set [5] in a line: Inhibition of bacterial N-terminal His-tagged TEV protease site linked OXA-48 (1 to 265 amino acids) expressed in Escherichia coli Transetta (DE3) preincubated for 10 mins followed by FC5 fluorescent substrate addition by fluorescence assay. On the set-up: species or system Bacteria.
Data set [6] in a line: Inhibition of bacterial N-terminal His-tagged TEV protease site linked GOB-18 (1 to 290 amino acids) expressed in Escherichia coli Transetta (DE3) preincubated for 10 mins followed by FC5 fluorescent substrate addition by fluorescence assay. Further details: species or system Bacteria.
Data set [7] is described as follows: Inhibition of bacterial N-terminal His-tagged TEV protease site linked AmpC (20 to 377 amino acids) expressed in Escherichia coli Transetta (DE3) preincubated for 10 mins followed by FC5 fluorescent substrate addition by fluorescence assay. Further details: species or system Bacteria.
Data set [8] addresses Angiotensin-converting enzyme 2 (Homo sapiens, UniProt Q9BYF1). Description: Inhibition of human C-terminal His/FLAG-tagged ACE-2 expressed in HEK293 cells at 100 uM preincubated for 10 mins followed by Mca-Ala-Pro-Lys(Dnp)-OH substrate addition by fluorescence assay relative to control. It counts as cell-based. As to conditions: hek293, 100 µM.

Angiotensin-converting enzyme 2, sequence (Q9BYF1 whole entry): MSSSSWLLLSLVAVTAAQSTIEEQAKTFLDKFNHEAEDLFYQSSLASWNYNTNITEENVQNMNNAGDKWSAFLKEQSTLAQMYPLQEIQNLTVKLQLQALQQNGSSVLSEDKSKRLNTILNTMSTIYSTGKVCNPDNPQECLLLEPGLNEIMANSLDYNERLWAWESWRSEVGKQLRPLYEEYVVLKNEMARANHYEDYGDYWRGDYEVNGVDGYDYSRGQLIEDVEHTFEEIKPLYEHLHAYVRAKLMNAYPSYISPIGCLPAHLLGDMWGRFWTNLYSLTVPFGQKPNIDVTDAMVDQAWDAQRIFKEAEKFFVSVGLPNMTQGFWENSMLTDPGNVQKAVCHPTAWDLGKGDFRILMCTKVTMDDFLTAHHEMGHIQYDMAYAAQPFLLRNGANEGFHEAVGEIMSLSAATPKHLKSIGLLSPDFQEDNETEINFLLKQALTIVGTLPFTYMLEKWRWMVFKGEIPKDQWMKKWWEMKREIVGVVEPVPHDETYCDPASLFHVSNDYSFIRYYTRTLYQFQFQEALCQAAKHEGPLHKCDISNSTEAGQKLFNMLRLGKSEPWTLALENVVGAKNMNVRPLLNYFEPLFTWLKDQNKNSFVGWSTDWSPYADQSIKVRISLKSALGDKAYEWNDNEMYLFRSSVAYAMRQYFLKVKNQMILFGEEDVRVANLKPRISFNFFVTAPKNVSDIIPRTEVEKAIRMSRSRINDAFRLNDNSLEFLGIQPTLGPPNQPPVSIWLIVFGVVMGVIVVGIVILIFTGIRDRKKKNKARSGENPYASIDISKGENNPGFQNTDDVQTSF
Beta-lactamase TEM, sequence (P62593 whole entry, the tested form may be a part): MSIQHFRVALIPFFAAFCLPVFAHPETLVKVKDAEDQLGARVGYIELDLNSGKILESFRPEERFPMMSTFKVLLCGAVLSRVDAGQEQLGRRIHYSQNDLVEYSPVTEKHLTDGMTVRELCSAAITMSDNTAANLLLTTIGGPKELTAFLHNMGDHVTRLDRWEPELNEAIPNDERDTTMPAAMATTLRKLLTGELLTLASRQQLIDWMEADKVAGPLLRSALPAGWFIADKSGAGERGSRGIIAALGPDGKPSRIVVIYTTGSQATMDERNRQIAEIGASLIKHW

For `CCC(=O)NCB(O)O`, the Ki in [1] is greater than 300 µM; in data set [2], greater than 300 µM; on Beta-lactamase TEM, 36.3 µM; in data set [3] it was 86.1 µM; in [4], greater than 300 µM; in [5], greater than 300 µM. Also, the Ki in data set [6] is greater than 300 µM; in data set [7], 291 µM.

For `CC(C)C[C@@H](NC(=O)[C@H](C)CS)B(O)O`, the Ki was 1.13 µM in [1]; 1.91 µM in data set [2]; 70.5 µM on Beta-lactamase TEM; 18.4 µM in data set [3]; 37.6 µM in [4]; greater than 300 µM in data set [5]. Besides, the Ki turned out to be 4.25 µM in [6] and 3.07 µM in data set [7]. Also, the “inhibition (INH)” value in data set [8] was “Not Active”.

Take `O=C(CS)N[C@@H](Cc1ccccc1)B(O)O`: the Ki turned out to be 3.34 µM in data set [1]; 0.48 µM in data set [2]; 18.7 µM at Beta-lactamase TEM; 12.4 µM in data set [3]; 165 µM in data set [4]; 50.5 µM in data set [5]. The inhibition constant Ki was found to be 1.69 µM in data set [6] and 1.56 µM in data set [7].

For `C[C@H](CS)C(=O)N[C@H](B(O)O)c1ccc2ccccc2c1`, the Ki in [1] is 0.72 µM; in [2], 11.1 µM; on Beta-lactamase TEM, 2.03 µM; in data set [3], 0.78 µM; in [4] it was 13.1 µM; in data set [5], greater than 300 µM. Further, the figures for the Ki in data set [6] and in data set [7] were 17.9 µM and 20.2 µM, respectively. The “inhibition (INH)” value in data set [8] is “Not Active”.

With `Cc1ccc([C@H](NC(=O)[C@H](C)CS)B(O)O)cc1`, the Ki in data set [1] is 3.28 µM; in data set [2], 0.51 µM; at Beta-lactamase TEM, 2.41 µM; in data set [3] it was 4.35 µM; in data set [4], 16.7 µM; in [5], greater than 300 µM. Besides, the inhibition constant (Ki) was 2.78 µM in data set [6] and 1.99 µM in data set [7]. Further, the “inhibition (INH)” value in data set [8] was “Not Active”.

For the compound `C[C@H](CS)C(=O)NCC(=O)O`, the Ki in data set [1] was 1.68 µM; in data set [2], greater than 300 µM; on Beta-lactamase TEM, greater than 300 µM; in data set [3], 140 µM; in data set [4], 22.5 µM; in data set [5], greater than 300 µM. For the same compound, the inhibition constant (Ki) in data set [6] and in data set [7] was greater than 300 µM each time.

`CCCC(=O)NCB(O)O`: the Ki is greater than 300 µM in data set [1]; 5.78 µM in [2]; 100 µM on Beta-lactamase TEM; 38.1 µM in data set [3]; greater than 300 µM in data set [4]; 102 µM in [5]. The results for the Ki in data set [6] and in data set [7] were 12.1 µM and 58.5 µM, respectively.

As to `COc1ccc(C[C@H](NC(=O)[C@H](C)CS)B(O)O)cc1`, the Ki was determined as 0.18 µM in data set [1]; 0.51 µM in data set [2]; 3.36 µM on Beta-lactamase TEM; 1.96 µM in [3]; 27.2 µM in data set [4]; 172 µM in [5]. In addition, the figures for the Ki in data set [6] and in [7] were 1.72 µM and 1.23 µM, respectively. Also, in data set [8], the “inhibition (INH)” value was “Not Active”.

For the compound `Cc1ccc([C@@H](NC(=O)[C@H](C)CS)B(O)O)cc1`, the inhibition constant Ki was 1.28 µM in data set [1]; 0.35 µM in data set [2]; 13.5 µM on Beta-lactamase TEM; 11.5 µM in [3]; 15.9 µM in data set [4]; greater than 300 µM in [5]. Moreover, the Ki came to 2.75 µM in [6] and 2.03 µM in data set [7]. In addition, the “inhibition (INH)” value in [8] is reported as “Not Active”.

Take `C[C@H](CS)C(=O)N[C@@H](B(O)O)c1ccc2ccccc2c1`: the Ki in [1] was 7.54 µM; in [2], 9.75 µM; at Beta-lactamase TEM, 216 µM; in [3], 12 µM; in [4] it was 101 µM; in data set [5], greater than 300 µM. The Ki in data set [6] is 23.5 µM; in data set [7], 25.3 µM. The “inhibition (INH)” value in data set [8] is “Not Active”.

Regarding `C[C@H](CS)C(=O)N[C@H](Cc1ccc(F)cc1)B(O)O`, the Ki was 0.48 µM in [1]; 0.77 µM in [2]; 179 µM at Beta-lactamase TEM; 14.6 µM in data set [3]; 17.4 µM in [4]; greater than 300 µM in data set [5]. The values for the Ki in data set [6] and in data set [7] were 6.33 µM and 1.98 µM, respectively. Also, the “inhibition (INH)” value in data set [8] is given as “Not Active”.

Consider `CC(C)[C@H](NC(=O)[C@H](C)CS)B(O)O`, for which the Ki in [1] is 0.51 µM; in data set [2], 9.14 µM; at Beta-lactamase TEM, 166 µM; in [3] it was 5.35 µM; in data set [4], 36.8 µM; in [5], greater than 300 µM. Also, the Ki in data set [6] and in data set [7] was 11.5 µM each time. Also, the “inhibition (INH)” value in [8] was “Not Active”.

Regarding `O=C(CCS)N[C@@H](Cc1ccccc1)B(O)O`, the Ki in [1] is 4.04 µM; in data set [2] it was 0.89 µM; on Beta-lactamase TEM it was 15.8 µM; in data set [3], 19.4 µM; in data set [4] it was 191 µM; in data set [5], 247 µM. For the same compound, the Ki in [6] was found to be 1.64 µM; in data set [7] it was 1.14 µM.

Consider `O=C(CCS)N[C@H](Cc1coc2ccccc12)B(O)O`, for which the Ki was 0.33 µM in data set [1]; 0.63 µM in data set [2]; 35.7 µM at Beta-lactamase TEM; 5.56 µM in [3]; 16.5 µM in [4]; greater than 300 µM in data set [5]. The values for the Ki in data set [6] and in data set [7] were 2.5 µM and 4.47 µM, respectively. The “inhibition (INH)” value in [8] is reported as “Not Active”.

As for `CC(C)[C@@H](NC(=O)[C@H](C)CS)B(O)O`, the Ki is 0.7 µM in data set [1]; 110 µM in data set [2]; greater than 300 µM at Beta-lactamase TEM; 158 µM in [3]; 25.6 µM in data set [4]; greater than 300 µM in data set [5]. For the same compound, the Ki in [6] is 58 µM; in data set [7], greater than 300 µM. In addition, in data set [8], the “inhibition (INH)” value was “Not Active”.

Consider `O=C(CS)N[C@H](Cc1coc2ccccc12)B(O)O`, for which the inhibition constant Ki in data set [1] was found to be 42.8 µM; in [2], 0.12 µM; on Beta-lactamase TEM, 6.84 µM; in data set [3] it was 0.5 µM; in data set [4] it was 10.2 µM; in data set [5], 217 µM. Also, the inhibitory constant (Ki) in [6] was determined as 1.67 µM; in data set [7], 0.97 µM. Further, the “inhibition (INH)” value in [8] was “Not Active”.

In the case of `O=C(N[C@@H](Cc1ccccc1)B(O)O)[C@@H](CS)N1C(=O)c2ccccc2C1=O`, the inhibition constant (Ki) in [1] was 2.41 µM; in data set [2], 7.76 µM; on Beta-lactamase TEM, 32.8 µM; in data set [3], 8.65 µM; in data set [4], 57.7 µM; in [5], greater than 300 µM. For the same compound, the Ki in [6] turned out to be 32.1 µM; in [7], 27.4 µM.

For `CCC(=O)N[C@@H](Cc1ccccc1)B(O)O`, the Ki in data set [1] is greater than 300 µM; in [2], 152 µM; at Beta-lactamase TEM, greater than 300 µM; in data set [3], greater than 300 µM; in data set [4], greater than 300 µM; in data set [5], greater than 300 µM. In addition, the values for the Ki in data set [6] and in data set [7] were 252 µM and 158 µM, respectively.

Consider `CCCC(=O)N[C@@H](Cc1ccccc1)B(O)O`, for which the Ki in data set [1] was greater than 300 µM; in data set [2], 9.21 µM; on Beta-lactamase TEM, greater than 300 µM; in [3] it was 107 µM; in data set [4] it was greater than 300 µM; in data set [5], greater than 300 µM. In addition, the Ki stood at 23.5 µM in data set [6] and 33.4 µM in data set [7].

For the origin of these results see ChEMBL document CHEMBL4373692, “Structure-Based Development of (1-(3'-Mercaptopropanamido)methyl)boronic Acid Derived Broad-Spectrum, Dual-Action Inhibitors of Metallo- and Serine-β-lactamases” (J Med Chem, 2019).
